Experimental data published in paper PMC7404261 (2020).

How the values were obtained:
[1] = test system: ssDNA-G4-Fw (DNA, G4) CGGGAAAAGGCGCGCGGAAGGGGT; assay: ThT fluorescence titration; details: Na+ (PBS), ThT 3 µM, ODN 0-6 µM, 491 nm, fitted to 1:1 model, unit not given
[2] = test system: RNA-G4 (RNA, G4) GGGAAAAGGCGCGCGGAAGGGG; assay: ThT fluorescence titration; details: Na+ (PBS), ThT 3 µM, ODN 0-6 µM, 491 nm, fitted to 1:1 model, unit not given

With `Cc1ccc2c(c1)sc(-c1ccc(N(C)C)cc1)[n+]2C` as the compound, how does the association constant [1] read?
The association constant was 2.72 × 10^6.

What about the association constant [2] of the same compound?
Its association constant is 2.90 × 10^6.
